Experiment [1] has as its system native GABAARs in hippocampal neurons. In words: muscimol-activated and CGP7930-activated GABAAR currents in hippocampal neurons, Cs+-based internal solution. It counts as cell-based, rat. As to conditions: read-out: muscimol EC50; hippocampal neurons, n = 9. As for the experimental part:
(§1) Briefly, single cells derived from dissected hippocampi were seeded onto glass coverslips coated with poly-D-lysine in a plating medium containing minimum essential media with 5% v/v heat-inactivated FCS, 5% v/v heat-inactivated horse serum, penicillin-G/streptomycin (100 U/100 μg/ml), 2 mM L-glutamine, and 20 mM glucose. Two hr after plating the media was changed to a Neurobasal-A based maintenance media supplemented with 1% v/v B-27, penicillin-G/streptomycin (100 U/100 μg/ml), 0.5% v/v Glutamax and 35 mM glucose.
(§2) Spontaneous inhibitory postsynaptic currents (sIPSCs) were recorded from cultured hippocampal neurons at 12–17 days in vitro (DIV). […] For recording K^+ currents in GIRK cells and neurons, the bath solution was switched to a high K^+ solution containing 25 mM KCl and reduced NaCl (120 mM), to shift the equilibrium potential for K^+ from approximately −90 to −47 mV, thus reversing the direction of K^+ current flux to net inward. GABABR-activated K^+ currents in cultured neurons were recorded in the additional presence of 2 mM kynurenic acid and 20 μM picrotoxin.
(§3) Borosilicate glass electrodes (3–5 MΩ) were filled with a K^+-based internal solution for recording GIRK currents containing (mM): 120 KCl, 2 MgCl2, 11 EGTA, 30 KOH, 10 HEPES, 1 CaCl2, 1 GTP, 2 ATP, 14 creatine phosphate, pH 7.0. GABAAR currents and sIPSCs were recorded with a Cs-based internal solution containing (mM): 120 CsCl, 1 MgCl2, 11 EGTA, 30 KOH, 10 HEPES, 1 CaCl2, and 2 K2ATP; pH 7.2. […] Cells were held at −60 mV (sIPSCs) or −60/−70 mV (K^+ currents). Voltage clamp recordings were undertaken after optimising series resistance (Rs, <10 MΩ) and compensating for the whole-cell membrane capacitance. Membrane currents were filtered at 5 kHz (−3 dB, 6th pole Bessel, 36 dB/octave) and stored for analysis with Clampex 10.
Concentration-response curves were generated by measuring the current (I) for each ligand concentration and normalising to the maximal current response (Imax).

Experiment [2] deals with GABAAR-mediated tonic inhibition in hippocampal neurons. Nature of the experiment: tonic inhibition: baseline holding current and RMS noise in cultured hippocampal neurons. It counts as cell-based, rat. As to conditions: Control to Bic (50 μM bicuculline). The method, then: as §1, §2, §3
For tonic inhibition, to determine the average holding currents, a 30 s continuous holding current recording was sampled every 1 s, discarding epochs that coincided with sIPSCs. Any effect of CGP7930 or bicuculline on the holding current was defined by subtracting the average holding currents in control and during drug application. The baseline root-mean-square current variance (RMS) was calculated before and during drug treatment. This was estimated from a continuous (20 s) current recording, sampled every 100 ms. The median current was calculated every 5 s and values more than twice the standard deviation from the median (usually due to IPSCs) were eliminated. All drugs were applied using a U-tube rapid drug application system, or more slowly via bath perfusion.
We assessed the effect of CGP7930 on tonic inhibition in hippocampal cultured neurons.

For experiment [3], the system named is GABAARs in hippocampal neurons. Nature of the experiment: slow inward current directly activated by CGP7930 in hippocampal neurons in high K+ external solution and its block by GABAAR antagonists. It counts as cell-based, rat. As to conditions: antagonist 100 μM, P < 0.001. The method, then: as §2
CGP7930 modulation at neuronal GABABRs was also characterised using baclofen-activated GIRK currents in hippocampal cultures similarly bathed in a high external K^+ concentration.

Experiment [4] deals with T1, GABABR (Rattus norvegicus, UniProt O88871+Q9Z0U4).
T1 construct: endogenous in cells; host or cells: cultured rat (E18 Sprague-Dawley) hippocampal neurons, 12-17 DIV
In words: GABABR antagonism by CGP55845 in hippocampal whole-cell recording. It counts as cell-based. As to conditions: n = 6, data not shown; read-out: IC50 of GABABR antagonist under our recording conditions.

Consider four molecules from PMC10951960, “CGP7930 - An allosteric modulator of GABABRs, GABAARs and inwardly-rectifying potassium channels” (Neuropharmacology, 2023).

In general, EC50 refers to the concentration giving half of the maximal effect. As a reminder, the IC50 is the concentration needed to halve the response being measured.

T1 sequence (Q9Z0U4 17-960 limits assumed): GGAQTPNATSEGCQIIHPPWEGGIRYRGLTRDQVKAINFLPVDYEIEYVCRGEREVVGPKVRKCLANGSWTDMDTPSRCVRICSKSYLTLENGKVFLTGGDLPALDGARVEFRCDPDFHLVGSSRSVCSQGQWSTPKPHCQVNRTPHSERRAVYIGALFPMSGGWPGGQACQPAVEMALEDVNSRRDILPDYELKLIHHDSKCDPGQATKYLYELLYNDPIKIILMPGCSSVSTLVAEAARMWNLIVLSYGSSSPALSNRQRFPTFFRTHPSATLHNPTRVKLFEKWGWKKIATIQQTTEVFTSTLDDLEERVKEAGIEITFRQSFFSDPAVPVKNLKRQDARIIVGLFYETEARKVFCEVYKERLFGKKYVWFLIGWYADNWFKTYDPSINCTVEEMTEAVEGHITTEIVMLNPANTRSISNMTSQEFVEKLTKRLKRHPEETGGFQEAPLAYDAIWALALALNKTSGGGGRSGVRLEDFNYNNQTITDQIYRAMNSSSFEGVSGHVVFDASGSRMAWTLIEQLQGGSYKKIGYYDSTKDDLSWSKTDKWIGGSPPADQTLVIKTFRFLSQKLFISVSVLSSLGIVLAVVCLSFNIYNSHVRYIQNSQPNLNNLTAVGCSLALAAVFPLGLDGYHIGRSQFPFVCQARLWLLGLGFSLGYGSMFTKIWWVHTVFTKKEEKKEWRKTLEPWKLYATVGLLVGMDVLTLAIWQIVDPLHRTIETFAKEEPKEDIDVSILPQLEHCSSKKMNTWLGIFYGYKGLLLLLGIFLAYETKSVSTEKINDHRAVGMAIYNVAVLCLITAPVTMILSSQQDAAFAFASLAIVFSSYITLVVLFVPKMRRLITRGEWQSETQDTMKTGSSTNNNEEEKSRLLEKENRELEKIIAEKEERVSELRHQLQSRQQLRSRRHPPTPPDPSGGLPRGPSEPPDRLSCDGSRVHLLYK
T1 sequence (O88871 41-940): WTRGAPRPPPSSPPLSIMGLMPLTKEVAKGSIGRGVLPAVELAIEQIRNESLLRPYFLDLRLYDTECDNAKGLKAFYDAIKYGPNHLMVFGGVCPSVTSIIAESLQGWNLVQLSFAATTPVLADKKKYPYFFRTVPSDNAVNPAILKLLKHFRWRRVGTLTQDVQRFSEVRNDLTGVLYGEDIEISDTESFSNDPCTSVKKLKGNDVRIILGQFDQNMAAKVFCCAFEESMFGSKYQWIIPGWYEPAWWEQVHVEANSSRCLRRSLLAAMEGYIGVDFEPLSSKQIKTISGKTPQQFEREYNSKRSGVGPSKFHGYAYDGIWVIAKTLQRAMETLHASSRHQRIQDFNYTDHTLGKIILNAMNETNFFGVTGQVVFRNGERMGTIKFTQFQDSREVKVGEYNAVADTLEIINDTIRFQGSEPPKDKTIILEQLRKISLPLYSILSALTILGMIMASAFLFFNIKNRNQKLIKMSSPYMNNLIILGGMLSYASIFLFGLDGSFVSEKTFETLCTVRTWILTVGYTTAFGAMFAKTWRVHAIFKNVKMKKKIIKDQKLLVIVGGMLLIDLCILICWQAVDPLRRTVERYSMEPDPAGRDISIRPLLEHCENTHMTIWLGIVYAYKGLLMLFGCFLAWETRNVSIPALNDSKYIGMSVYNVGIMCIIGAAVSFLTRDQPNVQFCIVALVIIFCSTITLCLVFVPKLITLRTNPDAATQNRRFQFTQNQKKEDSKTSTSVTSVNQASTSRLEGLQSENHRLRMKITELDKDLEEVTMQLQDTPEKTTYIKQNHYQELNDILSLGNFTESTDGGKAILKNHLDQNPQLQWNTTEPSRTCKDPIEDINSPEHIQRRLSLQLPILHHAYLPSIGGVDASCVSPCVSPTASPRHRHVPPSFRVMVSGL

For `NCc1cc(=O)[nH]o1` [muscimol], in experiment [1], the EC50 turned out to be 2700 ± 100 nM.

Take `CN1CCc2cc3c(cc2[C@H]1[C@@H]1OC(=O)c2c1ccc1c2OCO1)OCO3` [bicuculline]: in experiment [2], the “Tonic currents (change in baseline holding current)” value was 38.02 ± 7.43 (6) pA. Besides, the “effect on the slow inward current caused by > 3 μM CGP7930” value in experiment [3] is “abolished”.

picrotoxin: in experiment [3], the “effect on the slow inward current caused by > 3 μM CGP7930” value is listed as “abolished”.

Take `C[C@H](NC[C@H](O)CP(=O)(O)Cc1ccccc1)c1ccc(Cl)c(Cl)c1` [CGP55845]: in experiment [4], the IC50 came to 10 ± 0.7 nM.
